One compound from patent US12378250B2, “Tricyclic compound as IRAK4 inhibitor” (KOREA RESEARCH INSTITUTE OF CHEMICAL TECHNOLOGY, priority 2018, dated 2025) can be followed below.

For data set [1], the system named is TNF-α secretion, peripheral blood mononuclear cells (PBMCs). Description: Suppression of TNF-α secretion in LPS-treated PBMCs (ELISA). It is filed as cell-based. The following applies: PBMC, 100 ng/ml LPS, 24 hours, read-out: TNF-α, % inhibition degree. An outline of the steps:
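PBMCs (1×10^5 cells/well for TNF-α, 2×10^5 for IFN-α) preincubated 30 min with compound, then stimulated with 100 ng/ml LPS for 24 h (TNF-α) or 500 nM ODN2216 for 72 h (IFN-α). Cytokines in supernatants quantified by sandwich ELISA with TMB, absorbance 450/570 nm.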
For orientation: In an ELISA, binding on a coated surface is turned into a signal by an enzyme label.

Data set [2] has as its system NF-κB promoter, THP1-Lucia™ NF-κB cell line. The experiment in a line: NF-κB promoter inhibition, THP1-Lucia NF-κB cell line. It is filed as cell-based. The conditions noted are these: 100 ng/ml LPS, 24 hours, read-out: NF-κB, % inhibition degree. The essentials:
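THP1-Lucia cells (NF-κB line 1×10^4/well, ISG line 2×10^4/well) preincubated with compound for 30 minutes. Stimulation then used 100 ng/ml LPS (NF-κB) or 1 μg/ml Poly(dA:dT)/LyoVec (ISG) for 24 hours. Secreted luciferase in supernatant measured by Quanti-luc luminescence.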

The subject of data set [3] is TNF-α in serum, LPS-induced systemic inflammatory disease. Description: Suppressive effects on LPS-induced systemic inflammatory disease in mice (serum TNF-α). Format: in vivo, C57BL/6 mice. The conditions noted are these: doses of 50 and 100 mg/kg, oral, 2 hours prior to LPS 15 mg/kg i.p. As to the method:
As experimental animals, 8-week-old C57BL/6 (20 to 23 g) mice were supplied from Orient Bio Co., Ltd. (Seongnam, Gyeonggi-do) and used. The mice were acclimatized for 2 weeks or more in an animal room of the Korea Research Institute of Chemical Technology, where temperature (22±1° C.) and humidity (50±10%) were automatically adjusted, and then used for experiments, and allowed to freely ingest water and feed. This animal experiment was performed with the approval of the Animal Care and Use Committee of the Korea Research Institute of Chemical Technology. A systemic inflammatory disease was induced by administering a dose of 15 mg/kg lipopolysaccharide (LPS, Sigma L2880) intraperitoneally to the mice. A test drug was suspended in a 10% Cremophor solution and administered orally 2 hours prior to LPS injection, the mice were anesthetized with isoflurane 1 hour after LPS administration, and blood was collected from the heart. Serum was obtained by centrifuging the collected blood at 13,000 rpm for 15 minutes, store at −20° C., and then taken if needed to measure the content of cytokine (TNF-α) in serum using an ELISA kit manufactured by BD Biosciences. […]

Data set [4] deals with TMD-8 cells (B-cell lymphoma cell line). Description: Antitumor effect in SCID mice transplanted with TMD-8. Format: in vivo. As to the method:
As experimental animals, severe combined immunodeficiency (SCID) mice (C.B-17/IcrCrj-scid, female) were purchased from Charles River Laboratories Japan, Inc., and used. The mice were acclimatized for 2 weeks or more in an animal room, where temperature (22±1° C.) and humidity (50±10%) were automatically adjusted, and then used for experiments, and allowed to freely ingest water and feed. This animal experiment was performed with the approval of the Animal Care and Use Committee of the Korea Research Institute of Chemical Technology. As a TMD-8 cell line, which is a B-cell lymphoma cell line, a cell line whose subculture had been maintained in the Korea Research Institute of Chemical Technology was used.
Tumors in SCID mice were induced by transplanting TMD-8 cells at 9×10^6 cells/mouse to the right subcutaneous flank of each animal, and when the size of the transplanted tumor reached about 200 mm^3, drug administration was started ([…]). The test drug was suspended in a solution of 20% PEG400 and 3% Tween 80, and orally administered once a day for 14 days. After the test drug was administered, the diameter of the tumor (that is, a long diameter (a) and a short diameter (b) was measured using a calipers every 2 to 3 days, and according to a mathematical formula [size (mm^3) of tumor=(a×b^2)/2], the size (mm^3) of tumor was calculated, and is illustrated in FIGS. 3 and 4. As control drugs, PF-06650833 (Sigma) and ibrutinib (Medichem Express) were purchased and used, and the statistical significance of the antitumor effect of the test drug was verified using a student's T-test (SigmaStat, Jandel Scientific) program.

Take `Fc1cncc(-c2ccc3[nH]c4ncnc(N[C@H]5CC[C@H](N6CCOCC6)CC5)c4c3c2)c1` [Compound 6aaf, 6-(5-fluoropyridin-3-yl)-N-(trans-4-morpholinocyclohexyl)-9H-pyrimido[4,5-b]indole-4-amine]: the figures for the inhibition at 0.1 µM in data set [1] (0.1 μM) and in data set [2] (0.1 μM) were 51% and 43%, respectively. Also, the values for the inhibition at 1 µM in data set [1] (1 μM) and in data set [2] (1 μM) were 124% and 82%, respectively. Moreover, the “suppressive effect on systemic inflammation (serum TNF-α) compared to PF-06650833” value in data set [3] is on record as “better suppressive effect than PF-06650833”. In data set [4] (administered in combination with ibrutinib, oral, once a day for 14 days), the “antitumor effect (tumor size) in combination with ibrutinib” value was “excellent effect”. In addition, in data set [4] (during the test period), the “change in body weight of the experimental animals” value is “not much change”. Also, the “antitumor effect (tumor size) compared to PF-06650833” value in data set [4] (oral, once a day for 14 days, TMD-8 xenograft) is listed as “did not show a significant difference in effect when compared to PF-06650833, but showed a slightly better tendency”.

For orientation: inhibition means the relative decrease from the control value, in per cent.
